Source: patent US11866431B2, “Bicyclic compounds” (Vivace Therapeutics, Inc., priority 2018, dated 2024)

System: 8XTBD luciferase reporter (YAP reporter) in HEK293T cells
Test: YAP Reporter Assay
Assay type: cell-based
Conditions: Homo sapiens, HEK-293T, 24 h, read-out: Firefly Luciferase IC50 (μM)
Procedure: HEK293T cells stably transfected with 8XTBD luciferase reporter and pRLTK in 384-well plates were treated with the test compounds, starting from 3 μM (final concentration in assay plate), 1:3 dilution, and 10 points in quadruplicates. Post 24-hr incubation with compounds at 37° C. and 5% CO2, cells were lysed and 8XTBD-driven firefly luciferase and control TK-driven renilla luciferase activities were measured using Promega Dual-Luciferase Reporter Assay System.
Reagents: The reagents used for this study are: DMEM: Invitrogen #11960077, Dual-Glo Luciferase Assay System: Promega-E2980, Puromycin Dihydrochloride: Invitrogen-A1113803, 384-well plate: PerkinElmer-6007480, L-GLUTAMINE: Invitrogen-25030164, Hygromycin B: Invitrogen-10687010, and Penicillin-Streptomycin: Merk-TMS-AB2-C
Media: The media used for this assay were: Culture Medium: DMEM+1 ug/mL puromycin+200 ug/mL hygromycin (with 10% FBS+1 mM L-glutamine); and Assay Medium: DMEM (with 10% FBS+1 mM L-glutamine+1×P/S).
Cell Plating: The appropriate media was warmed at 37° C. by water bath: Culture Medium, Assay Medium, 1*D-PBS, 0.05% trypsin-EDTA. The cells were trypsinized after removing all media, then washed with 1*sterile D-PBS and then with 2 ml 0.05% trypsin-EDTA. The cells were then incubated at RT for one minute. Then 10 ml/75 cm2 flask Assay Medium was added to each flask. Using a 10 ml pipette, the cells were then gently resuspended in the media, until the clumps completely disappeared. The cells were then transferred into 50 ml centrifuge tubes and were centrifuged at 800 rpm for 5 mins. The medium was removed and the cells were resuspended with Assay Medium. An aliquot of cells was used to count the cell density (cells/ml). The cell suspension was then diluted with Assay Medium to a concentration of 6×10^4 cells/ml. 50 ul cells suspension was then plated to 384-well plate (PerkinElmer-6007480), 3×10^3 cells/well and the cells were incubated in an incubator at 37° C. 5% CO2.
Compound Treatment: In the afternoon (incubation of the plate with 3-4 hrs), the test compounds were added by Echo, starting from 3 uM (final concentration in the assay plate), 1:3 dilution, 10 points, quadruplicates. The plate was placed at 37° C. 5% CO2 incubator for 24 hrs.
Detection: The Dual-Glo Luciferase Reagent was prepared by transferring the contents of one bottle of Dual-Glo Luciferase Buffer to one bottle of Dual-Glo Luciferase Substrate to create the Dual-Glo Luciferase Reagent. Mixing was performed by inversion until the substrate was thoroughly dissolved. After mixing, the reagent was aliquoted into 15 ml tubes. In the afternoon (24 hrs post compound treatment), the DMEM+ medium in the 384 well plates were aspirated by Microplate Washer.
Measuring firefly luciferase activity: 20 ul Dual-Glo Luciferase Reagent was added to the 384-well plates. The plates were protected from light to prevent interference with the assay. The plates were shaken for 1 min followed centrifuging plates at 1000 rpm for 30 seconds. After waiting at least 10 minutes, the firefly luminescence was measured by Envision.
Measuring renilla luciferase activity: 20 ul Stop-Glo Reagent was added to the 384-well plates. The plates were shaken for 1 min and then centrifuged at 1000 rpm for 30 seconds. After waiting at least 10 minutes, the renilla luminescence was measured by Envision.
Compound IC50 and maximum inhibition on the firefly luciferase and renilla luciferase activities were reported separately.

SMILES | IC50
CC(C)NC(=O)c1ccc2c(-c3ccc(C(F)(F)F)cc3)cc3sc(N)nc3c2c1 [Compound 63, 2-amino-N-isopropyl-5-(4-(trifluoromethyl)phenyl)naphtho[1,2-d]thiazole-8-carboxamide] | < 0.1 µM

Same assay, conditions: Homo sapiens, HEK-293T; HEK293T cells stably transfected with 8XTBD luciferase reporter and pRLTK; 24-hr incubation; top concentration 3 μM; read-out: Firefly Luciferase IC50

SMILES | IC50
C[C@@H](NC(=O)c1ccc2c(-c3ccc(C(F)(F)F)cc3)cccc2c1)c1cnccn1 [Compound 283, (R)—N-(1-(pyrazin-2-yl)ethyl)-5-(4-(trifluoromethyl)phenyl)-2-naphthamide] | < 0.1 µM
N#Cc1nccc(CNC(=O)c2ccc3c(-c4ccc(C(F)(F)F)cc4)cccc3c2)n1 [Compound 179, N-((2-cyanopyrimidin-4-yl)methyl)-5-(4-(trifluoromethyl)phenyl)-2-naphthamide] | < 0.1 µM
COc1cc(-c2ccc(C(F)(F)F)cc2F)c2ncc(C(=O)N[C@@H](C)c3ccccn3)cc2c1 [Compound 232, (S)-8-(2-Fluoro-4-(trifluoromethyl)phenyl)-6-methoxy-N-(1-(pyridin-2-yl)ethyl)quinoline-3-carboxamide] | < 0.1 µM
O=C(O)c1ccc2c(-c3ccc(C(F)(F)F)s3)cccc2c1 [Compound 332, 5-[5-(trifluoromethyl)-2-thienyl]naphthalene-2-carboxylic acid] | < 0.1 µM
N#Cc1cc(CNC(=O)c2ccc3c(-c4ccc(C(F)(F)F)cc4)cccc3c2)ccn1 [Compound 186, N-((2-cyanopyridin-4-yl)methyl)-5-(4-(trifluoromethyl)phenyl)-2-naphthamide] | < 0.1 µM
O=C(NCc1ccnc(Cl)n1)c1ccc2c(-c3ccc(C(F)(F)F)cc3)cccc2c1 [Compound 180, N-((2-chloropyrimidin-4-yl)methyl)-5-(4-(trifluoromethyl)phenyl)-2-naphthamide] | 0.1 to 1 µM
C[C@H](NC(=O)c1ccc2c(-c3ccc(C(F)(F)F)cc3)cccc2c1)C1COC1 [Compound 269, (S)—N-(1-(oxetan-3-yl)ethyl)-5-(4-(trifluoromethyl)phenyl)-2-naphthamide] | < 0.1 µM
C#C[C@@H](C)NC(=O)c1ccc2c(-c3ccc(C(F)(F)F)cc3)cccc2c1 [Compound 275, (R)—N-(but-3-yn-2-yl)-5-(4-(trifluoromethyl)phenyl)-2-naphthamide] | < 0.1 µM
O=C(NCCC=CCO)c1ccc2c(-c3ccc(C(F)(F)F)cc3)cccc2c1 (stereo in doubt) [Compound 245, N-[(E)-5-hydroxypent-3-enyl]-5-[4-(trifluoromethyl)phenyl]naphthalene-2-carboxamide] | 0.1 to 1 µM
O=C(NC1(CO)CC1)c1ccc2c(-c3ccc(C(F)(F)F)cc3)cccc2c1 [Compound 257, N-(1-(hydroxymethyl)cyclopropyl)-5-(4-(trifluoromethyl)phenyl)-2-naphthamide] | < 0.1 µM
O=C(NCc1cccc(COc2ccon2)c1)c1ccc2c(-c3ccc(C(F)(F)F)cc3)cccc2c1 [Compound 192, N-(3-((isoxazol-3-yloxy)methyl)benzyl)-5-(4-(trifluoromethyl)phenyl)-2-naphthamide] | 0.1 to 1 µM
CS(=O)(=O)NC(=O)c1cnc2c(-c3ccc(C(F)(F)F)cc3)cc(OC3CC3)cc2c1 [Compound 122, 6-cyclopropoxy-N-(methylsulfonyl)-8-(4-(trifluoromethyl)phenyl)quinoline-3-carboxamide] | 0.1 to 1 µM
O=C(O)c1cnc2c(-c3ccc(C(F)(F)F)cc3)cc(OC(F)(F)F)cc2c1 [Compound 324, 6-(Trifluoromethoxy)-8-[4-(trifluoromethyl)phenyl]quinoline-3-carboxylic acid] | < 0.1 µM
COc1cccc(CNC(=O)c2ccc3c(-c4ccc(C(F)(F)F)cc4)cccc3c2)c1 [Compound 240, N-(3-methoxybenzyl)-5-(4-(trifluoromethyl)phenyl)-2-naphthamide] | 0.1 to 1 µM
COCCOc1cccc(CNC(=O)c2ccc3c(-c4ccc(C(F)(F)F)cc4)cccc3c2)c1 [Compound 208, N-(3-(2-methoxyethoxy)benzyl)-5-(4-(trifluoromethyl)phenyl)-2-naphthamide] | < 0.1 µM
C[C@@H](CN(C)C)NC(=O)c1ccc2c(-c3ccc(C(F)(F)F)cc3)cccc2c1 [Compound 64, (S)—N-(1-(dimethylamino)propan-2-yl)-5-(4-(trifluoromethyl)phenyl)-2-naphthamide] | 1 to 3 µM
CC(C)NC(=O)c1ccc2c(-c3ccc(C(F)(F)F)cc3)cncc2c1 [Compound 25, N-isopropyl-4-[4-(trifluoromethyl)phenyl]isoquinoline-7-carboxamide] | 0.1 to 1 µM
C[C@H](NC(=O)c1ccc2c(-c3ccc(C(F)(F)F)cc3)cccc2c1)c1cccc(N(C)C)n1 [Compound 287, (S)—N-(1-(6-(dimethylamino)pyridin-2-yl)ethyl)-5-(4-(trifluoromethyl)phenyl)-2-naphthamide] | 0.1 to 1 µM
O=C(O)/C=C/CCNC(=O)c1ccc2c(-c3ccc(C(F)(F)F)cc3)cccc2c1 [Compound 209, (E)-5-[[5-[4-(trifluoromethyl)phenyl]naphthalene-2-carbonyl]amino]pent-2-enoic Acid] | 1 to 3 µM
CC(C)NC(=O)c1ccc2c(-c3ccc(C(F)(F)F)cc3)cccc2n1 [Compound 248, N-isopropyl-5-(4-(trifluoromethyl)phenyl)quinoline-2-carboxamide] | 0.1 to 1 µM
C[C@@H](NC(=O)c1ccc2c(-c3ccc(C(F)(F)F)cc3)cccc2c1)c1cccc2nc[nH]c12 [Compound 173, N-[(1R)-1-(3H-benzimidazol-4-yl)ethyl]-5-[4-(trifluoromethyl)phenyl]naphthalene-2-carboxamide] | 0.1 to 1 µM
CC#C[C@H](C)NC(=O)c1ccc2c(-c3ccc(C(F)(F)F)cc3)cccc2c1 [Compound 272, (S)—N-(pent-3-yn-2-yl)-5-(4-(trifluoromethyl)phenyl)-2-naphthamide] | < 0.1 µM
C[C@H](CN1CCCC1)NC(=O)c1ccc2c(-c3ccc(C(F)(F)F)cc3)cccc2c1 [Compound 67, (R)—N-(1-(pyrrolidin-1-yl)propan-2-yl)-5-(4-(trifluoromethyl)phenyl)-2-naphthamide] | 0.1 to 1 µM
Nc1cccc(CNC(=O)c2ccc3c(-c4ccc(C(F)(F)F)cc4)cccc3c2)c1 [Compound 235, N-(3-aminobenzyl)-5-(4-(trifluoromethyl)phenyl)-2-naphthamide] | < 0.1 µM
CSc1ccc(-c2ccc(C(F)(F)F)cc2)c2ccc(C(=O)NC(C)C)cc12 [Compound 18, N-isopropyl-8-methylsulfanyl-5-[4-(trifluoromethyl)phenyl]naphthalene-2-carboxamide] | < 0.1 µM
O=C(NCc1ncsn1)c1ccc2c(-c3ccc(C(F)(F)F)cc3)cccc2c1 [Compound 193, N-((1,2,4-thiadiazol-3-yl)methyl)-5-(4-(trifluoromethyl)phenyl)-2-naphthamide] | < 0.1 µM
C[C@@H](NC(=O)c1cnc2c(-c3ccc(C(F)(F)F)cc3)cccc2c1)C1CN(CCF)C1 [Compound 318, (R)—N-(1-(1-(2-fluoroethyl)azetidin-3-yl)ethyl)-8-(4-(trifluoromethyl)phenyl)quinoline-3-carboxamide] | 0.1 to 1 µM
O=C(NCCCCCl)c1ccc2c(-c3ccc(C(F)(F)F)cc3)cccc2c1 [Compound 249, N-(4-chlorobutyl)-5-(4-(trifluoromethyl)phenyl)-2-naphthamide] | 0.1 to 1 µM
C[C@@H](NC(=O)c1ccc2c(-c3ccc(C(F)(F)F)cc3)cccc2c1)c1cccc2ccc(=O)[nH]c12 [Compound 177, N-[(1R)-1-(2-oxo-1H-quinolin-8-yl)ethyl]-5-[4-(trifluoromethyl)phenyl]naphthalene-2-carboxamide] | < 0.1 µM
CC(C)NC(=O)c1ccc2c(-c3ccc(C(F)(F)F)cc3)ccc(Br)c2c1 [Compound 8, 8-bromo-N-isopropyl-5-(4-(trifluoromethyl)phenyl)-2-naphthamide] | < 0.1 µM
